Laboratory results as given in a compilation of properties of binary mixtures (doi:10.1021/je300932n).

Test: xn = mol fraction of the nth substance listed
Conditions: 101 kPa

`CCCC[n+]1ccn(C)c1.N[C@@H](CC(=O)O)C(=O)[O-]` + CO showed an electrical conductivity (298.15 K, x1 = 0.0099) of 0.82 S/m, an electrical conductivity (298.15 K, x2 = 0.1001) of 0.087 S/m and an electrical conductivity (298.15 K, x2 = 0.1999) of 0.093 S/m. It also gave an electrical conductivity (298.15 K, x2 = 0.398) of 0.125 S/m, an electrical conductivity (298.15 K, x2 = 0.5949) of 0.218 S/m and an electrical conductivity (298.15 K, x2 = 0.6969) of 0.314 S/m. For the same compound, the electrical conductivity (298.15 K, x2 = 0.9214) was 1.27 S/m, the electrical conductivity (298.15 K, x2 = 0.9501) was 1.36 S/m and the electrical conductivity (298.15 K, x2 = 0.975) was 1.23 S/m. For the same compound, the electrical conductivity (303.15 K, x1 = 0.0099) was 0.89 S/m, the electrical conductivity (303.15 K, x2 = 0.1001) was 0.101 S/m and the electrical conductivity (303.15 K, x2 = 0.2999) was 0.148 S/m. The electrical conductivity (303.15 K, x2 = 0.398) was 0.185 S/m, the electrical conductivity (303.15 K, x2 = 0.5015) was 0.231 S/m and the electrical conductivity (303.15 K, x2 = 0.7957) was 0.75 S/m. It also gave an electrical conductivity (303.15 K, x2 = 0.8988) of 1.22 S/m, an electrical conductivity (303.15 K, x2 = 0.9214) of 1.32 S/m and an electrical conductivity (303.15 K, x2 = 0.9501) of 1.39 S/m. For the same compound, the electrical conductivity (303.15 K, x2 = 0.975) was 1.25 S/m, the electrical conductivity (308.15 K, x1 = 0.0099) was 1 S/m and the electrical conductivity (308.15 K, x2 = 0.1001) was 0.124 S/m. It also gave an electrical conductivity (308.15 K, x2 = 0.1999) of 0.155 S/m, an electrical conductivity (308.15 K, x2 = 0.2999) of 0.202 S/m and an electrical conductivity (308.15 K, x2 = 0.5015) of 0.263 S/m. The electrical conductivity (308.15 K, x2 = 0.5949) was 0.336 S/m, the electrical conductivity (308.15 K, x2 = 0.7957) was 0.83 S/m and the electrical conductivity (308.15 K, x2 = 0.8988) was 1.28 S/m. For the same compound, the electrical conductivity (308.15 K, x2 = 0.9501) was 1.44 S/m, the electrical conductivity (318.15 K, x1 = 0.0099) was 1.03 S/m and the electrical conductivity (318.15 K, x2 = 0.1001) was 0.205 S/m. The electrical conductivity (318.15 K, x2 = 0.2999) was 0.233 S/m, the electrical conductivity (318.15 K, x2 = 0.398) was 0.26 S/m and the electrical conductivity (318.15 K, x2 = 0.5949) was 0.429 S/m. The electrical conductivity (318.15 K, x2 = 0.6969) was 0.64 S/m, the electrical conductivity (318.15 K, x2 = 0.9214) was 1.48 S/m and the electrical conductivity (318.15 K, x2 = 0.9501) was 1.57 S/m. The electrical conductivity (318.15 K, x2 = 0.975) was 1.39 S/m.
